# According to ChEMBL document CHEMBL1649107, “Sulfonate-containing thiiranes as selective gelatinase inhibitors” (ACS Med Chem Lett, 2011):
# The source made the active and inactive calls. The rule behind the calls is not given here.
# Target: T1, Matrix metalloproteinase-9 (Homo sapiens, UniProt P14780)
# Experiment: Inhibition of human recombinant MMP9 catalytic domain assessed as dissociation rate constant by substrate hydrolysis based fluorescence spectrophotometry
# Conditions: not given
# T1 sequence (P14780 whole entry, the tested form may be a part): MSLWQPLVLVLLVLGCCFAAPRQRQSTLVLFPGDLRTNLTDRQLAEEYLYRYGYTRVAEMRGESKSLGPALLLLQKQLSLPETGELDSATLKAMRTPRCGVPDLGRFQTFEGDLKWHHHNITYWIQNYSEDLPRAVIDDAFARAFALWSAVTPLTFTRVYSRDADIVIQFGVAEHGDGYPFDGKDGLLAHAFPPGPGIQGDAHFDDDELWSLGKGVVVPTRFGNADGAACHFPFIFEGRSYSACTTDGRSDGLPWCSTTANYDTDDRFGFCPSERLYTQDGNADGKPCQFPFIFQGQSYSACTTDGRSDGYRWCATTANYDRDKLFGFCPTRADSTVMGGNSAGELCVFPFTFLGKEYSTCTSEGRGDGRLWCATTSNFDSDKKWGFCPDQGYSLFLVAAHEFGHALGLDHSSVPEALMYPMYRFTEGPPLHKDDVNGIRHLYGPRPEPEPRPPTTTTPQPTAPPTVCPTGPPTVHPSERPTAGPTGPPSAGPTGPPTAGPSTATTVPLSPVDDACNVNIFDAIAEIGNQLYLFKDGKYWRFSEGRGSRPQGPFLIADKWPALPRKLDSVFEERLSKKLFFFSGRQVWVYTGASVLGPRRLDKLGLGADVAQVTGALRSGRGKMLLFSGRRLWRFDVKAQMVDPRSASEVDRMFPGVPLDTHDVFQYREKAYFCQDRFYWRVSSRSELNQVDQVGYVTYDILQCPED
row,SMILES,Activity [×10⁻³ /s]
1,CCS(=O)(=O)Oc1ccc(Oc2ccc(S(=O)(=O)CC3CS3)cc2)cc1 (configuration not stated),1.5
2,O=S(=O)(CC1CS1)c1ccc(Oc2ccccc2)cc1 (configuration not stated),7.1
3,CC(C)CS(=O)(=O)Oc1ccc(Oc2ccc(S(=O)(=O)CC3CS3)cc2)cc1 (configuration not stated),2
4,CS(=O)(=O)Oc1ccc(Oc2ccc(S(=O)(=O)CC3CS3)cc2)cc1 (configuration not stated),0.1
5,CCCS(=O)(=O)Oc1ccc(Oc2ccc(S(=O)(=O)CC3CS3)cc2)cc1 (configuration not stated),1.6

# Target: T2, Matrix metalloproteinase-14 (Homo sapiens, UniProt P50281)
# Experiment: Inhibition of human recombinant MMP14 catalytic domain assessed as dissociation rate constant by substrate hydrolysis based fluorescence spectrophotometry
# Conditions: not given
row,SMILES,Activity [×10⁻³ /s]
1,CCS(=O)(=O)Oc1ccc(Oc2ccc(S(=O)(=O)CC3CS3)cc2)cc1 (configuration not stated),9
2,CC(C)CS(=O)(=O)Oc1ccc(Oc2ccc(S(=O)(=O)CC3CS3)cc2)cc1 (configuration not stated),2
3,CCCS(=O)(=O)Oc1ccc(Oc2ccc(S(=O)(=O)CC3CS3)cc2)cc1 (configuration not stated),1.8

# Target: T2, Matrix metalloproteinase-14
# Experiment: Inhibition of human recombinant MMP14 catalytic domain by substrate hydrolysis based fluorescence spectrophotometry
# Conditions: not given
row,SMILES,Ki [nM]
1,CCS(=O)(=O)Oc1ccc(Oc2ccc(S(=O)(=O)CC3CS3)cc2)cc1 (configuration not stated),360
2,O=S(=O)(CC1CS1)c1ccc(Oc2ccccc2)cc1 (configuration not stated),110
3,CC(C)CS(=O)(=O)Oc1ccc(Oc2ccc(S(=O)(=O)CC3CS3)cc2)cc1 (configuration not stated),790
4,CCCS(=O)(=O)Oc1ccc(Oc2ccc(S(=O)(=O)CC3CS3)cc2)cc1 (configuration not stated),240

# Target: T3, Interstitial collagenase (Homo sapiens) (UniProt P03956)
# T3 sequence (whole entry): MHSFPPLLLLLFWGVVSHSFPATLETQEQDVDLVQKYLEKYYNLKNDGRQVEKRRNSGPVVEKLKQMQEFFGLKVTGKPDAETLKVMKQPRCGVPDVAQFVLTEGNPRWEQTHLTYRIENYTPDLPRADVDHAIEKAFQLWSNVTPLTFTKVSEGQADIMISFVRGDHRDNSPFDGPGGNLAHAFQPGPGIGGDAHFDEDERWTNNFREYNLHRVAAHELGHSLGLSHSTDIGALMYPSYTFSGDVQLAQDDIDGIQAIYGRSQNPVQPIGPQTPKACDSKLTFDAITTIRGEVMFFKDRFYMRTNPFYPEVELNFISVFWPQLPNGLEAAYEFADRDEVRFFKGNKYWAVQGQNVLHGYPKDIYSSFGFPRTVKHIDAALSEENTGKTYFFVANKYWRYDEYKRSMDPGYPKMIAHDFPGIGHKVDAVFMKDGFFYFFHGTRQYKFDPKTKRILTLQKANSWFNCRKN
# Experiment: Inhibition of human recombinant MMP1 catalytic domain at 40 uM by substrate hydrolysis based fluorescence spectrophotometry
# Conditions: not given
row,SMILES,inhibition
1,CCS(=O)(=O)Oc1ccc(Oc2ccc(S(=O)(=O)CC3CS3)cc2)cc1 (configuration not stated),inactive

# Target: T4, Stromelysin-1 (Homo sapiens, UniProt P08254)
# Experiment: Inhibition of human recombinant MMP3 catalytic domain at 20 uM by substrate hydrolysis based fluorescence spectrophotometry
# Conditions: not given
# Target sequence in this assay (P08254 100-477 limits assumed): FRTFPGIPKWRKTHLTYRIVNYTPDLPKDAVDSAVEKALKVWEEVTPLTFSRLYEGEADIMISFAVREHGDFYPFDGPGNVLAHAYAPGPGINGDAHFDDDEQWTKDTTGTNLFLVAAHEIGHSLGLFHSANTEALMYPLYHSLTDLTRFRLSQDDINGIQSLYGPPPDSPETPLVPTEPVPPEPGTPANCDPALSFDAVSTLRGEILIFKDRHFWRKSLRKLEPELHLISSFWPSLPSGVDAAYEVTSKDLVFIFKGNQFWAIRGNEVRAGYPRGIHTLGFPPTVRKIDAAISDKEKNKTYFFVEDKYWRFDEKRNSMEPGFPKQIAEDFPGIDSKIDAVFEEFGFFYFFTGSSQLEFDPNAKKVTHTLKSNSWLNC
row,SMILES,inhibition [%]
1,CCS(=O)(=O)Oc1ccc(Oc2ccc(S(=O)(=O)CC3CS3)cc2)cc1 (configuration not stated),38
2,CC(C)CS(=O)(=O)Oc1ccc(Oc2ccc(S(=O)(=O)CC3CS3)cc2)cc1 (configuration not stated),5
3,CCCS(=O)(=O)Oc1ccc(Oc2ccc(S(=O)(=O)CC3CS3)cc2)cc1 (configuration not stated),22

# Target: T5, Matrilysin (Homo sapiens) (UniProt P09237)
# T5 sequence (whole entry): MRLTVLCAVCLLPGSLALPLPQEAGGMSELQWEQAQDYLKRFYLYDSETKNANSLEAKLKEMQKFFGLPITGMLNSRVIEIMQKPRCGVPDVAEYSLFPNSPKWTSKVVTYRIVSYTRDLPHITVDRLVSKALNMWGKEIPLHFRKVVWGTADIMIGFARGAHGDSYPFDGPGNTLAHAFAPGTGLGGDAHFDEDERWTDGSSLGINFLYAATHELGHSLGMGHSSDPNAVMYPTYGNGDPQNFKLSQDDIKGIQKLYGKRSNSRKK
# Experiment: Inhibition of human recombinant MMP7 catalytic domain at 40 uM by substrate hydrolysis based fluorescence spectrophotometry
# Conditions: not given
row,SMILES,inhibition [%]
1,CCS(=O)(=O)Oc1ccc(Oc2ccc(S(=O)(=O)CC3CS3)cc2)cc1 (configuration not stated),8

# Target: T3, Interstitial collagenase (Homo sapiens)
# Experiment: Inhibition of human recombinant MMP1 catalytic domain at 20 uM by substrate hydrolysis based fluorescence spectrophotometry
# Conditions: not given
row,SMILES,inhibition
1,CCCS(=O)(=O)Oc1ccc(Oc2ccc(S(=O)(=O)CC3CS3)cc2)cc1 (configuration not stated),inactive

# Target: T5, Matrilysin (Homo sapiens)
# Experiment: Inhibition of human recombinant MMP7 catalytic domain at 20 uM by substrate hydrolysis based fluorescence spectrophotometry
# Conditions: not given
row,SMILES,inhibition [%]
1,CCCS(=O)(=O)Oc1ccc(Oc2ccc(S(=O)(=O)CC3CS3)cc2)cc1 (configuration not stated),5

# Target: T3, Interstitial collagenase (Homo sapiens)
# Experiment: Inhibition of human recombinant MMP1 catalytic domain at 30 uM by substrate hydrolysis based fluorescence spectrophotometry
# Conditions: not given
row,SMILES,inhibition
1,CC(C)CS(=O)(=O)Oc1ccc(Oc2ccc(S(=O)(=O)CC3CS3)cc2)cc1 (configuration not stated),inactive

# Target: T5, Matrilysin (Homo sapiens)
# Experiment: Inhibition of human recombinant MMP7 catalytic domain at 30 uM by substrate hydrolysis based fluorescence spectrophotometry
# Conditions: not given
row,SMILES,inhibition
1,CC(C)CS(=O)(=O)Oc1ccc(Oc2ccc(S(=O)(=O)CC3CS3)cc2)cc1 (configuration not stated),inactive

# Tested on: not listed separately
# Experiment: Half life in rat liver microsomes at 100 uM by HPLC
# Format: ADME, Microsome
# Conditions: not given
row,SMILES,half-life at 100 µM [min]
1,CCS(=O)(=O)Oc1ccc(Oc2ccc(S(=O)(=O)CC3CS3)cc2)cc1 (configuration not stated),35.9
2,O=S(=O)(CC1CS1)c1ccc(Oc2ccccc2)cc1 (configuration not stated),12
3,CC(C)CS(=O)(=O)Oc1ccc(Oc2ccc(S(=O)(=O)CC3CS3)cc2)cc1 (configuration not stated),16.2
4,CS(=O)(=O)Oc1ccc(Oc2ccc(S(=O)(=O)CC3CS3)cc2)cc1 (configuration not stated),24.8
5,CCCS(=O)(=O)Oc1ccc(Oc2ccc(S(=O)(=O)CC3CS3)cc2)cc1 (configuration not stated),12.6

# Tested on: not listed separately
# Experiment: Intrinsic clearance in rat liver microsomes at 100 uM by HPLC
# Format: ADME, Microsome
# Conditions: not given
row,SMILES,CLint scaled at 100 µM [mL/min/kg]
1,CCS(=O)(=O)Oc1ccc(Oc2ccc(S(=O)(=O)CC3CS3)cc2)cc1 (configuration not stated),39
2,O=S(=O)(CC1CS1)c1ccc(Oc2ccccc2)cc1 (configuration not stated),117
3,CC(C)CS(=O)(=O)Oc1ccc(Oc2ccc(S(=O)(=O)CC3CS3)cc2)cc1 (configuration not stated),86.5
4,CS(=O)(=O)Oc1ccc(Oc2ccc(S(=O)(=O)CC3CS3)cc2)cc1 (configuration not stated),56.5
5,CCCS(=O)(=O)Oc1ccc(Oc2ccc(S(=O)(=O)CC3CS3)cc2)cc1 (configuration not stated),111

# Target: 72 kDa type IV collagenase (Homo sapiens, UniProt P08253)
# Sequence (P08253 whole entry): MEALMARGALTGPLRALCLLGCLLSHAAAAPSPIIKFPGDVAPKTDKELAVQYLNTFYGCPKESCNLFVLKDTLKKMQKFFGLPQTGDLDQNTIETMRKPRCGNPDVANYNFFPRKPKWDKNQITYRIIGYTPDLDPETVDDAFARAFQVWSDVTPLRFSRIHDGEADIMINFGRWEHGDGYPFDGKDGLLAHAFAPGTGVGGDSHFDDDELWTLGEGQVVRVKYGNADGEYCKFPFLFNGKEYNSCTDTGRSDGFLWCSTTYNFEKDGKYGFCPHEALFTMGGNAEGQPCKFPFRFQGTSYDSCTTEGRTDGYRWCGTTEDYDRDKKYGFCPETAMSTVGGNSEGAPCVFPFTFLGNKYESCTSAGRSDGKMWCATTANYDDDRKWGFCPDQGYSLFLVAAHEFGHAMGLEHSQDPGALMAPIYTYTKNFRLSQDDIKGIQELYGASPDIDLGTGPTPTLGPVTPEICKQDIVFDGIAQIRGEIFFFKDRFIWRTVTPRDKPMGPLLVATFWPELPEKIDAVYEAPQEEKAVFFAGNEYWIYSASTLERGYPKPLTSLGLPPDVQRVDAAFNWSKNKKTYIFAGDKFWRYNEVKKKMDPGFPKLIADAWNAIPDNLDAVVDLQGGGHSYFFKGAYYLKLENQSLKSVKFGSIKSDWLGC
# Experiment: not given
# Conditions: not given
row,SMILES,Ki [nM]
1,CCS(=O)(=O)Oc1ccc(Oc2ccc(S(=O)(=O)CC3CS3)cc2)cc1 (configuration not stated),70
2,CC(C)CS(=O)(=O)Oc1ccc(Oc2ccc(S(=O)(=O)CC3CS3)cc2)cc1 (configuration not stated),61
3,CCCS(=O)(=O)Oc1ccc(Oc2ccc(S(=O)(=O)CC3CS3)cc2)cc1 (configuration not stated),34

# Target: T1, Matrix metalloproteinase-9
# Experiment: not given
# Conditions: not given
row,SMILES,Ki [nM]
1,CCS(=O)(=O)Oc1ccc(Oc2ccc(S(=O)(=O)CC3CS3)cc2)cc1 (configuration not stated),330
2,CC(C)CS(=O)(=O)Oc1ccc(Oc2ccc(S(=O)(=O)CC3CS3)cc2)cc1 (configuration not stated),380
3,CCCS(=O)(=O)Oc1ccc(Oc2ccc(S(=O)(=O)CC3CS3)cc2)cc1 (configuration not stated),520

# Target: T4, Stromelysin-1
# Experiment: not given
# Conditions: not given
# Target sequence in this assay (P08254 whole entry, the tested form may be a part): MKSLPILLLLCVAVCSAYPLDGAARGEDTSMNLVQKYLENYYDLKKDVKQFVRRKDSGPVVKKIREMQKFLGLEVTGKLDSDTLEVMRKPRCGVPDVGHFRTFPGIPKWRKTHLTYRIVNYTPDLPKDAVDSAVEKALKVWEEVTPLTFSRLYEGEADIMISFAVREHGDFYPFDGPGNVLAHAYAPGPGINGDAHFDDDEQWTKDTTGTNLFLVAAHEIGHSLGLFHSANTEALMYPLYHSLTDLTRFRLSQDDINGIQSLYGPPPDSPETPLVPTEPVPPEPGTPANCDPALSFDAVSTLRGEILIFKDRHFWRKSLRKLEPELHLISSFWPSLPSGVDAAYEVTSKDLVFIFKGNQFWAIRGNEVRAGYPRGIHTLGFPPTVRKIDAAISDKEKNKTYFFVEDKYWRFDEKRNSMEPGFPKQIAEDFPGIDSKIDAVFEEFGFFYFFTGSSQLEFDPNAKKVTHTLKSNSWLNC
row,SMILES,Ki [nM]
1,CS(=O)(=O)Oc1ccc(Oc2ccc(S(=O)(=O)CC3CS3)cc2)cc1 (configuration not stated),600

# Tested on: not listed separately
# Experiment: physchem
# Conditions: aqueous
# Description: Aqueous solubility of the compound
row,SMILES,solubility [µg/mL]
1,CCS(=O)(=O)Oc1ccc(Oc2ccc(S(=O)(=O)CC3CS3)cc2)cc1 (configuration not stated),4.1
2,CC(C)CS(=O)(=O)Oc1ccc(Oc2ccc(S(=O)(=O)CC3CS3)cc2)cc1 (configuration not stated),1.1
3,CS(=O)(=O)Oc1ccc(Oc2ccc(S(=O)(=O)CC3CS3)cc2)cc1 (configuration not stated),3.5
4,CCCS(=O)(=O)Oc1ccc(Oc2ccc(S(=O)(=O)CC3CS3)cc2)cc1 (configuration not stated),4
